Values of other authors, collected in patent US11925695B2, “Methods for making ultrasound contrast agents” (Lantheus Medical Imaging, Inc., priority 2016, dated 2024).
Read-outs that look alike come from different tables or passages of the source. Each block holds one compound with its values, some of them ahead of it.

Assays:
[1] = not given; remark: listed apart in the source

viscosity (at 15° C.): 2200 cps
SMILES: OCC(O)CO [Glycerol, glycerol]

pKa for the amine of the ethanolamine [1]: 9.3
pKa for the hydroxyl of the phosphate [1]: 1.9
SMILES: CCCCCCCCCCCCCCCC(=O)OC[C@H](COP(=O)(O)OCCN)OC(=O)CCCCCCCCCCCCCCC [DPPE, 1,2-dipalmitoyl-sn-glycero-3-phosphatidylethanolamine]

SMILES: O [Water]
viscosity (at 15° C.): approximately 1.14 cps

viscosity (at 25° C.): 42 cps
SMILES: CC(O)CO (centres unmarked) [Propylene glycol, propylene glycol]
